System: Ba/F3 cells expressing EGFR-Del/T790M
Experiment: tumor model using Ba/F3 cells expressing EGFR-Del/T790M
Assay type: in vivo, mice
Source text: NSCLC cell lines as well as engineered Ba/F3 and NIH3T3 cell lines were used to examine the activity of compounds of formula (I) against 3 general forms of EGFR: native EGFR (the naturally occurring form), EGFR with an activating mutation (delE746_A750 [Del] or L858R; this form is sensitive to first generation EGFR inhibitors), and EGFR with both an activating mutation and a T790M resistance mutation (L858R/T790M or Del/T790M; the addition of the T790M mutation makes this form resistant to first generation EGFR inhibitors). Effects of test compounds on EGFR signaling were assessed by measuring levels of phosphorylated EGFR, effects on in vitro proliferation measured by a growth or viability assay, and effects on in vivo tumor growth measured in mice following daily oral dosing.

COc1cc(N2CCC(N3CCN(C)CC3)CC2)ccc1Nc1ncc(Cl)c(Nc2ccccc2P(C)(C)=O)n1 [AP26113]
inhibition at 50 mg/kg (Mus musculus, BaF3, 24 h, read-out: inhibition of levels of phosphorylated EGFR in the tumor): > 80%
tumor growth inhibition (daily oral dosing with 50 mg/kg): > 90%

From patent US20140024620A1, “Methods for Inhibiting Cell Proliferation in EGFR-Driven Cancers” (ARIAD PHARMACEUTICALS, INC., priority 2010, published 2014)
